Measurements from PMC6582486, “Stapled EGFR peptide reduces inflammatory breast cancer and inhibits additional HER-driven models of cancer” (Journal of Translational Medicine, 2019).
Where a SMILES comes first, the peptide text is derived from it. Bridges are numbered along the chain shown (N, C = ends). [ ]: non-standard residue; d: D form. R8 = C=CCCCCCC[C@@](C)(N)C(=O)O; S5 = C=CCCC[C@](C)(N)C(=O)O

What was measured:
[1] = test system: EGFR T790M mutated H1975 lung adenocarcinoma cells; experiment: Cell viability assay (MTT), H1975; type: cell-based; conditions: H1975 (HER1 T790M), 10 µM, 72 h
Protocol: 1000–3000 cells were plated in 96-well plates (Falcon; Corning, NY) and allowed to adhere for 24–48 h prior to therapeutic introduction. Compounds were added and incubated on cells for 3 days in serum-containing media, followed by 2 h treatment with MTT (Sigma M5655) with the resulting formazan solubilized in DMSO. Absorbance was read at 540 nm by plate reader (uQuant, Bio-Tek Instruments). P-values were calculated from a one-way ANOVA.
Fig. 3 SAH5-EJ1 inhibits growth and prolongs survival in PDX models of lung cancer. a, b Cell viability assays performed in A549 or EGFR T790M mutated H1975 lung adenocarcinoma cells over 3 days comparing treatment with Sapitinib (blue lines) to SAH5-EJ1 (red lines). Solid lines represent 24 h; dashed lines represent 72 h. Data shown represent mean ± percent difference of assays performed in quadruplicate. c Reduction in tumor burden in Erlotinib-resistant lung cancer PDX mouse model TM00784 with various doses of intravenous SAH5-EJ1. Control represents water as a vehicle control. *p < 0.05 (Control vs 1 µg/g); **p < 0.01 (Control vs 1 µg/g and vs 10 µg/g). d Kaplan–Meier curve of lung PDX mouse model treated with control (blue line) or either 1 or 10 µg/g SAH5-EJ1 (green line and red line, respectively). Data shown represent mean. N = 6 for all groups

[2] = 28-day toxicity study: injection site reactogenicity; type: in vivo, CD-1 mice; conditions: for Injection site reactogenicity: Animals with Signs: 28-day study
Protocol: Toxicology was performed by IITRI. The study was conducted in compliance with the US Food and Drug Administration (FDA) good laboratory practice (GLP) Regulations (Code of Federal Regulations Title 21 Part 58) to evaluate the toxicokinetics, local tolerability, immunogenicity, and potential toxicity of SAH5-EJ1 following three times per week intravenous (IV) dosing for 28 days in mice. Male and female CD-1 IGS [Crl:CD1(ICR)] mice (135 per sex) were received from Wilmington, MA-based Charles River Laboratories, Inc.’s Kingston facility (Stone Ridge, NY).
Response measured at 6 and 24 hours post-injection.

CC[C@H](C)[C@H](NC(=O)[C@H](Cc1c[nH]cn1)NC(=O)[C@H](CCCNC(=N)N)NC(=O)[C@H](CCCNC(=N)N)NC(=O)[C@H](CCCNC(=N)N)NC(=O)[C@H](CCSC)NC(=O)[C@H](Cc1ccccc1)NC(=O)[C@H](C)NC(=O)[C@H](CCCNC(=N)N)NC(=O)[C@H](C)NC(=O)[C@H](CCC(N)=O)NC(=O)[C@H](CCCNC(=N)N)NC(=O)[C@H](C)NC(=O)[C@H](C)NC(=O)[C@H](C)NC(=O)[C@H](CCCNC(=N)N)NC(=O)[C@H](C)NC(=O)[C@@H](N)Cc1ccc(O)cc1)C(=O)N[C@H](C(=O)N[C@@H](CCCNC(=N)N)C(=O)N[C@@H](CCCCN)C(=O)N[C@@H](CCCNC(=N)N)C(=O)N[C@]1(C)CCCCCCC=CCCC[C@@](C)(C(=O)N[C@@H](CCCNC(=N)N)C(=O)N[C@@H](CCC(=O)O)C(N)=O)NC(=O)[C@H](CCC(N)=O)NC(=O)[C@H](CC(C)C)NC(=O)[C@H](CC(C)C)NC(=O)[C@H](CCCNC(=N)N)NC(=O)[C@H](CCCNC(=N)N)NC(=O)[C@H](CC(C)C)NC1=O)C(C)C [SAH5-EJ1] (H-YARAAARQARAFMRRRHIVRKR[R8]LRRLLQ[S5]RE-NH2; staple 23-30)
cell death [1]: 100%
Edema (animals) ([2]; female, 5 mg/kg, 10 examined): 10
Edema: 0 - Normal, no swelling (animals) ([2]; female, 5 mg/kg, 10 examined): 10
Edema: 1 - Minimal, slight swelling (animals) ([2]; female, 5 mg/kg, 10 examined): 5
Edema: 2 - Mild, defined swelling (animals) ([2]; female, 5 mg/kg, 10 examined): 0
Edema: 3 - Moderate, defined swelling, raised border (animals) ([2]; female, 5 mg/kg, 10 examined): 0
Erythema and Eschar Formation (animals) ([2]; female, 5 mg/kg, 10 examined): 10
Erythema and Eschar: 0 - Normal (animals) ([2]; female, 5 mg/kg, 10 examined): 10
Erythema and Eschar: 1 - Minimal (animals) ([2]; female, 5 mg/kg, 10 examined): 4
Erythema and Eschar: 2 - Mild, bright pink/pale, distinct (animals) ([2]; female, 5 mg/kg, 10 examined): 4
Erythema and Eschar: 3 - Moderate, bright red, distinct (animals) ([2]; female, 5 mg/kg, 10 examined): 0
Erythema and Eschar: 4 - Severe, dark red, pronounced (animals) ([2]; female, 5 mg/kg, 10 examined): 1
Injection site reactogenicity: Animals with Signs ([2]; female, 5 mg/kg, 10 examined): 10
Edema (animals) ([2]; female, 10 mg/kg, 10 examined): 10
Edema: 0 - Normal, no swelling (animals) ([2]; female, 10 mg/kg, 10 examined): 10
Edema: 1 - Minimal, slight swelling (animals) ([2]; female, 10 mg/kg, 10 examined): 10
Edema: 2 - Mild, defined swelling (animals) ([2]; female, 10 mg/kg, 10 examined): 3
Edema: 3 - Moderate, defined swelling, raised border (animals) ([2]; female, 10 mg/kg, 10 examined): 0
Erythema and Eschar Formation (animals) ([2]; female, 10 mg/kg, 10 examined): 10
Erythema and Eschar: 0 - Normal (animals) ([2]; female, 10 mg/kg, 10 examined): 10
Erythema and Eschar: 1 - Minimal (animals) ([2]; female, 10 mg/kg, 10 examined): 10
Erythema and Eschar: 2 - Mild, bright pink/pale, distinct (animals) ([2]; female, 10 mg/kg, 10 examined): 7
Erythema and Eschar: 3 - Moderate, bright red, distinct (animals) ([2]; female, 10 mg/kg, 10 examined): 5
Erythema and Eschar: 4 - Severe, dark red, pronounced (animals) ([2]; female, 10 mg/kg, 10 examined): 2
Injection site reactogenicity: Animals with Signs ([2]; female, 10 mg/kg, 10 examined): 10
Edema (animals) ([2]; female, 15 mg/kg, 15 examined): 15
Edema: 0 - Normal, no swelling (animals) ([2]; female, 15 mg/kg, 15 examined): 15
Edema: 1 - Minimal, slight swelling (animals) ([2]; female, 15 mg/kg, 15 examined): 14
Edema: 2 - Mild, defined swelling (animals) ([2]; female, 15 mg/kg, 15 examined): 12
Edema: 3 - Moderate, defined swelling, raised border (animals) ([2]; female, 15 mg/kg, 15 examined): 1
Erythema and Eschar Formation (animals) ([2]; female, 15 mg/kg, 15 examined): 15
Erythema and Eschar: 0 - Normal (animals) ([2]; female, 15 mg/kg, 15 examined): 15
Erythema and Eschar: 1 - Minimal (animals) ([2]; female, 15 mg/kg, 15 examined): 10
Erythema and Eschar: 2 - Mild, bright pink/pale, distinct (animals) ([2]; female, 15 mg/kg, 15 examined): 14
Erythema and Eschar: 3 - Moderate, bright red, distinct (animals) ([2]; female, 15 mg/kg, 15 examined): 5
Erythema and Eschar: 4 - Severe, dark red, pronounced (animals) ([2]; female, 15 mg/kg, 15 examined): 6
Injection site reactogenicity: Animals with Signs ([2]; female, 15 mg/kg, 15 examined): 15
Edema (animals) ([2]; male, 5 mg/kg, 10 examined): 10
Edema: 0 - Normal, no swelling (animals) ([2]; male, 5 mg/kg, 10 examined): 10
Edema: 1 - Minimal, slight swelling (animals) ([2]; male, 5 mg/kg, 10 examined): 7
Edema: 2 - Mild, defined swelling (animals) ([2]; male, 5 mg/kg, 10 examined): 0
Edema: 3 - Moderate, defined swelling, raised border (animals) ([2]; male, 5 mg/kg, 10 examined): 0
Edema: 4 - Severe, pronounced swelling, raised border (animals) ([2]; male, 5 mg/kg, 10 examined): 0
Erythema and Eschar Formation (animals) ([2]; male, 5 mg/kg, 10 examined): 10
Erythema and Eschar: 0 - Normal (animals) ([2]; male, 5 mg/kg, 10 examined): 10
Erythema and Eschar: 1 - Minimal (animals) ([2]; male, 5 mg/kg, 10 examined): 3
Erythema and Eschar: 2 - Mild, bright pink/pale, distinct (animals) ([2]; male, 5 mg/kg, 10 examined): 2
Erythema and Eschar: 3 - Moderate, bright red, distinct (animals) ([2]; male, 5 mg/kg, 10 examined): 0
Erythema and Eschar: 4 - Severe, dark red, pronounced (animals) ([2]; male, 5 mg/kg, 10 examined): 1
Injection site reactogenicity: Animals with Signs ([2]; male, 5 mg/kg, 10 examined): 10
Edema (animals) ([2]; male, 10 mg/kg, 10 examined): 10
Edema: 0 - Normal, no swelling (animals) ([2]; male, 10 mg/kg, 10 examined): 10
Edema: 1 - Minimal, slight swelling (animals) ([2]; male, 10 mg/kg, 10 examined): 8
Edema: 2 - Mild, defined swelling (animals) ([2]; male, 10 mg/kg, 10 examined): 7
